“And” between values parts separate entries of the source, which are not always exact repeats. Equal values may be shown once.
Tested on: LRRK2 S935 phosphorylation
Experiment: Western blot of LRRK2 biomarker site pS935 in transfected 293T cells
Type: cell-based, human
Experimental: For all in cell kinase assays, after 48 hours, transfected cells were treated with either DMSO (control) or the indicated inhibitors for 4 hours at 37°C and 5% CO2. Following treatments, cells were washed three times with ice cold PBS. Cells were then lysed in ice cold radioimmunoprecipitation assay (RIPA) lysis buffer [50 mM tris (pH 8.0), 150 mM NaCl, 1% Triton X-100, 0.1% SDS, 0.5% sodium deoxycholate, and 1 mM DTT] in the presence of complete mini EASYpack protease inhibitor cocktail and the PhosSTOP EASYpack phosphatase inhibitor cocktail (Roche). Resuspended and lysed cells were clarified by centrifugation at 13,000g for 15 min at 4°C. NuPAGE LDS Sample Buffer (1×) and NuPAGE Sample Reducing Agent (1×; Invitrogen) were added to the clarified supernatants, and the samples were boiled at 95°C for 5 min and spun down at 13,000g for 10 min. For Western blotting, 15 μl of sample was loaded into a NuPAGE 4 to 12% gradient bis-tris gel (Invitrogen) and run at 120 V for 75 min before transfer to polyvinylidene difluoride transfer membrane (0.45-μm pore size, Millipore) for 240 min at 80 V at 4°C. The membrane was blocked in 5% milk in 1× Tris-buffered saline (TBS) [20 mM tris (pH 8.0) and 150 mM NaCl] for 1 hour shaking at room temperature. Primary antibodies [monoclonal rabbit anti-LRRK2 (Abcam, ab133474; RRID: AB_2713963), polyclonal rabbit anti-LRRK1 (Abcam, ab228666), monoclonal rabbit anti-LRRK2 phospho-S935 (Abcam, ab133450; RRID: AB_2732035), monoclonal rabbit anti-Rab8a phospho-T72 (Abcam, ab230260; RRID: AB_2814988), monoclonal rabbit anti-Rab7 phospho-S72 (Abcam, ab302494; RRID: AB_2933985), monoclonal rabbit anti–glyceraldehyde-3-phosphate dehydrogenase (GAPDH; Cell Signalling Technology, 2118; RRID: AB_561053), and monoclonal mouse anti-GFP (Santa Cruz Biotechnology, sc-9996; RRID: AB_627695)] were diluted in 5% milk in TBS and incubated with membrane for 16 hours at 4°C. Following incubation, membranes were washed three times with 1× TBS-T [20 mM tris (pH 8.0), 150 mM NaCl, and 0.1% Tween 20] before incubation with IRDye 680RD goat anti-rabbit IgG (LI-COR, 926-68071; RRID: AB_10956166) and IRDye 800CW goat anti-mouse IgG (LI-COR, 926-32210; RRID: AB_621842) secondary antibodies in 5% milk in 1× TBS for 1 hour at room temperature. Membranes were then washed three times in 1× TBS-T before imaging on Li-COR Odyssey CLx controlled by Imaging Studio software (www.licorbio.com/image-studio, RRID:SCR_015795). Image processing and quantification were performed in ImageJ version 2.14.0 (National Institutes of Health; https://imagej.net/, RRID:SCR_003070). The signal intensity of each band was assessed using the Analyze>Gels tool. The band intensity for phosphorylated LRRK2 was measured and compared to total LRRK2 levels (run under identical conditions on a separate gel). Band intensity for phosphorylated Rab7 or Rab8a was measured and compared against total GFP-Rab7 or GFP-Rab8a (using anti-GFP antibody) and LRRK1/LRRK2 levels as appropriate. Comparative statistical analysis of phosphorylation levels was analyzed using a one-way analysis of variance (ANOVA) and corrected using Tukey’s multiple comparisons test in GraphPad Prism 10 (www.graphpad.com/, RRID:SCR_002798). (For current step-by-step protocol for LRRK transfection and Western blotting, see dx.doi.org/10.17504/protocols.io.kxygx9bozg8j/v1.)

## C[C@@H]1CN(c2cc(-c3n[nH]c4ccc(OC5(C)CC5)cc34)ncn2)C[C@H](C)O1 [MLi-2, reference compound]
500 nM, 4 h, 3 replicates
  pS935 LRRK2/LRRK2 normalized to DMSO, Mean: 0.05291
500 nM, 4 h, individual Western blots
  pS935 LRRK2/LRRK2 normalized to DMSO: 0.09836 and 0.02387 and 0.03651
293T cells, MLi-2 500 nM
  effect on phosphorylation of LRRK2 S935: almost complete dephosphorylation

— publication PMC12136037, “Type II kinase inhibitors that target Parkinson’s disease–associated LRRK2” (Science Advances, 2025)
